According to PubChem BioAssay (NCI):
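Here, GI50 denotes the concentration required for 50% inhibition of growth. Definition used: TGI = concentration required for complete inhibition of growth.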

Legend:
Experiment in all cases: NCI anticancer screen, dose series, 384-well format
[1] = tested on: U251 glioblastoma
[2] = tested on: UACC-257 melanoma
[3] = tested on: 786-0 renal
[4] = tested on: MALME-3M melanoma
[5] = tested on: SNB-19 CNS
[6] = tested on: TK-10 renal
[7] = tested on: MDA-MB-435 melanoma
[8] = tested on: KM12 colon
[9] = tested on: EKVX NSCLC
[10] = tested on: SR leukemia
[11] = tested on: SK-MEL-2 melanoma
[12] = tested on: UACC-62 melanoma
[13] = tested on: NCI-H23 lung
[14] = tested on: T-47D breast
[15] = tested on: SN12C renal
[16] = tested on: A549 NSCLC
[17] = tested on: CCRF-CEM leukemia
[18] = tested on: RPMI-8226 leukemia
[19] = tested on: SNB-75 CNS
[20] = tested on: MCF7 breast
[21] = tested on: HCT-116 colon
[22] = tested on: COLO 205 colon
[23] = tested on: HCC-2998 colon
[24] = tested on: HL-60(TB) leukemia
[25] = tested on: BT-549 breast
[26] = tested on: HOP-92 NSCLC
[27] = tested on: DU-145 prostate
[28] = tested on: SF-295 CNS
[29] = tested on: M14 melanoma
[30] = tested on: NCI/ADR-RES ovarian
[31] = tested on: MOLT-4 leukemia
[32] = tested on: SK-MEL-28 melanoma
[33] = tested on: SK-OV-3 ovarian
[34] = tested on: A498 renal
[35] = tested on: CAKI-1 renal
[36] = tested on: PC-3 prostate
[37] = tested on: HS 578T breast
[38] = tested on: SF-268 CNS
[39] = tested on: MDA-MB-231 breast
[40] = tested on: NCI-H460 NSCLC
[41] = tested on: OVCAR-3 ovarian
[42] = tested on: OVCAR-5 ovarian
[43] = tested on: NCI-H522 lung
[44] = tested on: SF-539 CNS
[45] = tested on: SW-620 colon
[46] = tested on: ACHN renal
[47] = tested on: HOP-62 NSCLC

Which GI50 [1] does the source give for NC(=O)c1cccc2cn(-c3ccc([C@@H]4CCCNC4)cc3)nc12 here?
The GI50 was 12.2 µM.

And the TGI [1]?
The TGI was 25.1 µM.

And the GI50 [2]?
Its GI50 is 16.8 µM.

And the TGI [2]?
Its TGI is 30.6 µM.

And the GI50 [3]?
The GI50 was 12.7 µM.

What about the TGI [3] of the same compound?
Its TGI is 26.3 µM.

What about the GI50 [4] of the same compound?
Its GI50 is 12.8 µM.

What about the TGI [4] of the same compound?
Its TGI is 25.6 µM.

And the GI50 [5]?
The GI50 was 18.3 µM.

What about the TGI [5] of the same compound?
The TGI was over 54.2 µM.

And the GI50 [6]?
The GI50 was 16.2 µM.

What about the TGI [6] of the same compound?
The TGI was 34 µM.

And the GI50 [7]?
The GI50 was 17.5 µM.

What about the TGI [7] of the same compound?
Its TGI is 33.6 µM.

And the GI50 [8]?
The GI50 was 14.7 µM.

What about the TGI [8] of the same compound?
Its TGI is 28.9 µM.

And the GI50 [9]?
Its GI50 is 17.7 µM.

And the TGI [9]?
Its TGI is 34.7 µM.

What about the GI50 [10] of the same compound?
Its GI50 is 0.805 µM.

And the TGI [10]?
Its TGI is 2.18 µM.

What about the GI50 [11] of the same compound?
Its GI50 is 23.2 µM.

What about the TGI [11] of the same compound?
The TGI was 37.9 µM.

What about the GI50 [12] of the same compound?
The GI50 was 12 µM.

What about the TGI [12] of the same compound?
The TGI was 24.5 µM.

What about the GI50 [13] of the same compound?
The GI50 was 5.93 µM.

What about the TGI [13] of the same compound?
The TGI was 19.6 µM.

What about the GI50 [14] of the same compound?
The GI50 was 12.6 µM.

And the TGI [14]?
The TGI was 26.2 µM.

What about the TGI [15] of the same compound?
The TGI was over 43.4 µM.

What about the GI50 [16] of the same compound?
The GI50 was 11.8 µM.

And the TGI [16]?
Its TGI is 24.5 µM.

What about the GI50 [17] of the same compound?
Its GI50 is 1.83 µM.

What about the TGI [17] of the same compound?
The TGI was 3.71 µM.

What about the GI50 [18] of the same compound?
The GI50 was 9.26 µM.

And the TGI [18]?
The TGI was 23.1 µM.

And the GI50 [19]?
The GI50 was 4.68 µM.

And the TGI [19]?
Its TGI is 16.5 µM.

What about the GI50 [20] of the same compound?
Its GI50 is 6.48 µM.

What about the TGI [20] of the same compound?
Its TGI is 18.8 µM.

What about the GI50 [21] of the same compound?
Its GI50 is 4.73 µM.

What about the TGI [21] of the same compound?
The TGI was 18.3 µM.

And the GI50 [22]?
The GI50 was 11 µM.

And the TGI [22]?
The TGI was 23.2 µM.

What about the GI50 [23] of the same compound?
The GI50 was 14 µM.

And the TGI [23]?
Its TGI is 27.1 µM.

And the GI50 [24]?
The GI50 was 1.85 µM.

What about the TGI [24] of the same compound?
The TGI was 3.88 µM.

And the GI50 [25]?
The GI50 was 9.95 µM.

And the TGI [25]?
Its TGI is 22 µM.

What about the GI50 [26] of the same compound?
The GI50 was 14.3 µM.

What about the TGI [26] of the same compound?
Its TGI is 28.3 µM.

And the GI50 [27]?
Its GI50 is 4.89 µM.

What about the TGI [27] of the same compound?
The TGI was 16.1 µM.

What about the GI50 [28] of the same compound?
Its GI50 is 2.64 µM.

What about the TGI [28] of the same compound?
Its TGI is 7.79 µM.

And the GI50 [29]?
Its GI50 is 4.68 µM.

What about the TGI [29] of the same compound?
Its TGI is 15.8 µM.

And the GI50 [30]?
The GI50 was 13.5 µM.

And the TGI [30]?
The TGI was 29.6 µM.

What about the GI50 [31] of the same compound?
Its GI50 is 1.49 µM.

And the TGI [31]?
Its TGI is 2.83 µM.

And the GI50 [32]?
Its GI50 is 16.2 µM.

What about the TGI [32] of the same compound?
Its TGI is 29.9 µM.

And the GI50 [33]?
The GI50 was 11.7 µM.

And the TGI [33]?
Its TGI is 28.8 µM.

What about the GI50 [34] of the same compound?
Its GI50 is 16.7 µM.

And the TGI [34]?
The TGI was 30.5 µM.

And the GI50 [35]?
Its GI50 is 11.1 µM.

And the TGI [35]?
The TGI was 23.3 µM.

And the GI50 [36]?
Its GI50 is 15.4 µM.

And the TGI [36]?
Its TGI is 46.6 µM.

What about the GI50 [37] of the same compound?
Its GI50 is 10.1 µM.

What about the TGI [37] of the same compound?
The TGI was 21.9 µM.

And the GI50 [38]?
Its GI50 is 5.24 µM.

What about the TGI [38] of the same compound?
The TGI was 20.1 µM.

And the GI50 [39]?
The GI50 was 14.7 µM.

And the TGI [39]?
The TGI was 29 µM.

And the GI50 [40]?
Its GI50 is 3.06 µM.

And the TGI [40]?
The TGI was 13.4 µM.

And the GI50 [41]?
Its GI50 is 18.3 µM.

And the TGI [41]?
Its TGI is 33 µM.

What about the GI50 [42] of the same compound?
The GI50 was 24 µM.

What about the TGI [42] of the same compound?
Its TGI is 59.6 µM.

And the GI50 [43]?
The GI50 was 15.1 µM.

What about the TGI [43] of the same compound?
The TGI was 29 µM.

And the GI50 [44]?
Its GI50 is 5.66 µM.

And the TGI [44]?
Its TGI is 18.2 µM.

What about the GI50 [45] of the same compound?
Its GI50 is 6.05 µM.

What about the TGI [45] of the same compound?
The TGI was 22.4 µM.

What about the GI50 [46] of the same compound?
Its GI50 is 9.72 µM.

And the TGI [46]?
Its TGI is 21.7 µM.

What about the GI50 [47] of the same compound?
The GI50 was 3.12 µM.

And the TGI [47]?
Its TGI is 11.3 µM.
